Legend:
[1] = system: SPT (wt enzyme); test: DoxSA formation in HEK293 wt cells at various L-serine:L-alanine ratios in the presence of FB1; type: cell-based; conditions: increasing L-serine medium concentrations, varying L-alanine concentrations
Experimental: (§1) HEK293 wt cells (FIG. 7-I) and Hek cells expressing various mutant forms of SPT (wt, C133W, C133Y, V144D) (FIG. 7-II) were cultured at various L-serine:L-alanine ratios in the presence of FB1 (see above Example 1). […] In the second approach L-alanine concentrations were held constant at 2 mM.
(§2) A further suitable method to screen for putative suppressors of deoxy-sphingolipid synthesis is as follows: a suitable cell line (e.g. HEK293) is cultured to approximately 60% confluency. The compound of interest is added to the culture medium in the appropriate concentration. Additionally, fumonisin B1 (FB1) is added to a final concentration of 10 μg/ml. After 24 h of incubation, cells are washed with PBS and harvested and an aliquot separated for cell counting. The remaining cells are pelleted and extracted in 500 μl extraction buffer (4 volumes MeOH/KOH+1 volume CHCl3), including an internal reference standard (e.g. deuteriated (d7)-sphinganine, (d7)-sphingosine or synthetic C17-sphingosine). Subsequently, 500 μl chloroform, 500 μl alkaline water and 100 μl 2N ammonia are added, followed by centrifugation (120000×g, 5 min). […] The lipids are finally derivatized with o-phthaldialdehyde (OPA) and analysed by LC-MS. […] Deoxysphingoid bases are ionised by APCI (atmospheric pressure chemical ionisation) and analysed in positive ion mode.

[2] = system: mutated form of SPT (C133W); type: cell-based; conditions: HEK293 C133W; for SPT activity: fumonisin B1 24 h, 1 mM L-cycloserine, 10 mM D-serine
Experimental: Cells were cultivated in normal media without any supplementation (A) or in the presence of 10 mM L-alanine (B), 10 mM glycine (C); 1 mM L-cycloserine (D); 10 mM D-alanine (E), 10 mM D-serine (F) or 10 mM L-serine (G).
HEK293 cells expressing a mutated form of SPT (C133W) were cultured in the presence of various amino acids and structurally related compounds. The cells were additionally treated with fumonisin B1 (see Example 1).
(§3) A further suitable method to screen for putative suppressors of deoxy-sphingolipid synthesis is as follows: a suitable cell line (e.g. HEK293) is cultured to approximately 60% confluency. The compound of interest is added to the culture medium in the appropriate concentration. Additionally, fumonisin B1 (FB1) is added to a final concentration of 10 μg/ml. After 24 h of incubation, cells are washed with PBS and harvested and an aliquot separated for cell counting. The remaining cells are pelleted and extracted in 500 μl extraction buffer (4 volumes MeOH/KOH+1 volume CHCl3), including an internal reference standard (e.g. deuteriated (d7)-sphinganine, (d7)-sphingosine or synthetic C17-sphingosine). Subsequently, 500 μl chloroform, 500 μl alkaline water and 100 μl 2N ammonia are added, followed by centrifugation (120000×g, 5 min). The upper phase is discarded and the organic phase washed twice with alkaline water. Lipids are dried under a stream of N2 and resolubilized in 50 μl ethanol (95%) and 100 μl methanol:H2O (85:15). The lipids are finally derivatized with o-phthaldialdehyde (OPA) and analysed by LC-MS. OPA derivates are separated on a C18 column. Mobile phase is ammonium acetate (5 mM):methanol=17:83 (25 min, isocratic), followed by a wash with 100% methanol (5 min) at a flow rate of 300 μl/min. Deoxysphingoid bases are ionised by APCI (atmospheric pressure chemical ionisation) and analysed in positive ion mode.

[3] = system: mutant forms of SPT (C133W, C133Y, V144D); test: DoxSA formation in Hek cells expressing mutant forms of SPT at increasing L-serine in the presence of FB1; type: cell-based; conditions: HSAN1 mutants C133W, increasing L-serine medium concentrations, L-alanine constant at 2 mM
Experimental: as §1, §2

[4] = system: HSAN1 mice; test: L-serine or L-alanine enriched diet in transgenic HSAN1 mice (C133W SPTLC1); type: in vivo
Description: Mice received an L-serine or L-alanine enriched diet (10% L-Serine or L-Alanine w/w) for a period 15 days. […] Plasma deoxy-sphingolipid levels remained low during the whole treatment period (A, pmol/ml; B, days).
Transgenic mice expressing a mutant (C133W) form of SPTLC1 develop a peripheral neuropathy within 10 to 15 months of life. The development of a neuropathy in these HSAN1 mice correlates with highly elevated deoxy-sphinganine and deoxy-sphingosine plasma levels.

[5] = system: HSAN1 patients; test: Oral L-serine supplementation in HSAN1 patients (C133Y); type: in vivo, humans
Experimental: (A, weeks, B, μM; C, treatment phase; D, washout phase).
14 HSAN1 patients having the C133Y mutation received an oral serine supplementation for a period of 10 weeks followed by a wash out period of two weeks (FIG. 9). Patients were separated in a low dose and a high dose treatment group (n per group=7) receiving either 5 g or 10 g L-serine/day. The plasma sphingolipid composition was analyzed by an acid/base hydrolysis to release the free sphingoid bases. […] In both groups an up to 80% reduction in plasma deoxy-sphingolipid levels was observed. […] During the wash out phase the plasma deoxy-sphingolipid levels raised again.

[6] = system: cellular SPT activity; test: Accumulation of sphingoid bases in HEK 293 wt cells treated with fumonisin B1 and cytostatics; type: cell-based; conditions: for DoxSA generation / SA (sphinganine) generation / accumulation: fumonisin B1, increasing concentrations of drug
Experimental: HEK 293 wt cells were cultured in the presence of increasing concentrations of paclitaxel (FIG. 6-I), etoposide (FIG. 6-II) and thalidomide (FIG. 6-III). The cells were additionally treated with fumonisin B1 (FB1), an inhibitor of ceramide synthase (CerS). The inhibition of CerS leads to an intracellular accumulation of the SPT products, namely sphinganine, deoxy-sphinganine. Since the SPT reaction is the rate limiting step in the de novo synthesis pathway, the amount of accumulated sphingoid bases is a measure of the cellular SPT activity. […] Etoposide increased sphinganine and DoxSA production. […] In contrast to paclitaxel and etiposide, the non-cytostatic thalidomide (FIG. 6-III) had no effect.
as §3

[7] = fumonisin B1, 10 mM supplementation

N[C@@H](CO)C(=O)O [L-serine]
DoxSA formation [1]: significant decrease
formation of sphinganine [2, 7]: stimulates the formation
generation of deoxy-sphingoid bases [2, 7]: suppresses
DoxSA formation [3]: significant decrease
DoxSA formation ([3]; listed as L-erine): efficiently inhibited
plasma deoxy-sphinganine and deoxy-sphingosine levels vs untreated mice ([4]; enriched diet 10% w/w for 15 days, 3-4 days after start of treatment): remarkable reduction
reduction in plasma deoxy-sphinganine and deoxy-sphingosine levels ([4]; enriched diet 10% w/w, after 4-5 days of treatment): up to 80%
development of neuropathy ([4]; enriched diet, until end of study (18 months), untreated controls neuropathic after 8 to 9 months): did not develop a neuropathy
difference between low and high dose group ([5]; 5 g vs 10 g/day, plasma deoxy-sphingolipid levels): No significant differences
time to maximal suppression of plasma deoxy-sphinganine and deoxy-sphingosine levels ([5]; HSAN1 patients C133Y, oral 5 g or 10 g/day): 6 weeks
reduction in plasma deoxy-sphingolipid levels ([5]; HSAN1 patients C133Y, oral 5 g or 10 g/day, 10 weeks, both groups): up to 80%
deoxy-sphingolipid plasma levels during treatment period ([5]; HSAN1 patients C133Y, oral treatment over ten weeks, until end of treatment): remained suppressed
plasma deoxy-sphingolipid levels during wash out phase ([5]; two weeks wash out after 10 weeks of treatment): raised again

O=C1CCC(N2C(=O)c3ccccc3C2=O)C(=O)N1 (centres unmarked) [thalidomide]
DoxSA generation [6]: no effect
SA (sphinganine) generation / accumulation [6]: no effect

NCC(=O)O [glycine, reference compound]
formation of deoxymethyl-sphinganine [2, 7]: stimulate the formation

CC(=O)O[C@H]1C(=O)[C@@]2(C)[C@H]([C@H](OC(=O)c3ccccc3)[C@]3(O)C[C@H](OC(=O)[C@H](O)[C@@H](NC(=O)c4ccccc4)c4ccccc4)C(C)=C1C3(C)C)[C@]1(OC(C)=O)CO[C@@H]1C[C@@H]2O [Paclitaxel, paclitaxel]
DoxSA generation [6]: stimulated DoxSA generation in a dose dependant manner
SA (sphinganine) generation / accumulation [6]: not altered

N[C@@H]1CON=C1O [cycloserine, reference compound]
SPT activity [2]: generally inhibitory

N[C@H](CO)C(=O)O [D-serine]
SPT activity [2]: generally inhibitory

COc1cc([C@@H]2c3cc4c(cc3[C@@H](O[C@@H]3O[C@@H]5CO[C@@H](C)O[C@H]5[C@H](O)[C@H]3O)[C@H]3COC(=O)[C@H]23)OCO4)cc(OC)c1O [Etoposide, etoposide]
concentration at which DoxSA showed a maximum ([6]; fumonisin B1): 0.5 mM
DoxSA generation [6]: increased
SA (sphinganine) generation / accumulation [6]: increased in a dose dependant manner

C[C@H](N)C(=O)O [L-alanine, reference compound]
formation of deoxy-sphinganine [2, 7]: increased formation
plasma deoxy-sphingolipid levels ([4]; enriched diet): increased
time to first neuropathic symptoms ([4]; enriched diet): 2-3 months

From patent US20130005783A1, “Prevention And Treatment Of Diseases Caused By Elevated Levels Of Deoxy-Sphingolipids” (priority 2010, published 2013)
